According to patent publication US20210171464A1 (OLON S.P.A., priority 2017, published 2021):

What was measured:
[1] = exposure to atmospheric humidity (stability, hygroscopicity); type: physicochemical
[2] = system: dopamine receptors; conditions: cited from earlier work

Molecule	hygroscopicity [1]	stability when exposed to atmospheric humidity ([1]; exposed to atmospheric humidity)	affinity for dopamine receptors [2]
CC(C)COc1ccc(CNC(=O)N(Cc2ccc(F)cc2)C2CCN(C)CC2)cc1.CC(C)COc1ccc(CNC(=O)N(Cc2ccc(F)cc2)C2CCN(C)CC2)cc1.O=C(O)C(O)C(O)C(=O)O [N-(4-fluorobenzyl)-N-(1-methylpiperidin-4-yl)-N′-(4-(2-methylpropyloxy)-phenylmethyl)carbamide hemitartrate]	not hygroscopic	stable	
N-(4-fluorobenzyl)-N-(1-methylpiperidin-4-yl)-N′ -(4-(2-methyl-propyloxy)phenylmethyl)carbamide hemitartrate [pimavanserin hemitartrate]			no affinity
